Measurements: patent US9289400B2, “D3 dopamine receptor agonists to treat dyskinesia in parkinson's disease” (priority 2010, dated 2016)
Entries after “also recorded” stand apart in the source; their conditions may differ. Where two headings read alike, the source gives them in different places.

Experiments:
D3 dopamine receptor [1] = target: T1, D3 dopamine receptor (Homo sapiens (Human), UniProt P35462); assay: GIRK channel activation, whole cell voltage clamp, AtT-20 cells stably expressing D3; assay type: cell-based; conditions: D2/D3 antagonist eticlopride (100 nM)
Method: The activation of the GIRK channels was measured electrophysiologically using whole cell voltage clamp recording (Kuzhikandathil et al., 2004, Mol. Cell. Neurosci. 26:144-155). […]. The adenylyl cyclase inhibition was determined using a commercially available ELISA assay (Westrich & Kuzhikandathil, 2007, Biochim. Biophys. Acta-Mol. Cell. Res. 1773:1747-1758).
. In the initial screen, the ability of 300 nM lead compound to activate G-protein coupled inward rectifier potassium (GIRK) channels (FIG. 1) is measured using whole cell voltage clamp recording. The protocol has been previously used for performing whole cell voltage clamp and measuring agonist-induced GIRK response. […]. The EC50 values for each receptor subtype is determined by fitting the data points using the Hill equation.
AtT-20 mouse pituitary cells were grown in Ham's F10 medium with 5% FBS, 10% heat-inactivated horse serum, 2 mM glutamine and 50 μg/ml gentamicin (Invitrogen, Carlsbad, Calif.). AtT-20 cells stabling expressing the human D2S, D2L, D3, and D4.2 and receptor were maintained in the above F10 culture media supplemented with 500 μg/ml G418 (Invitrogen). For electrophysiological characterization, cells were plated onto glass coverslips coated with 40 μg/ml poly L-lysine (Sigma-Aldrich). […]. Physiol. 115:697-706; Kuzhikandathil et al., 1998, Mol. Cell. Neurosci. 12:390-402; Kuzhikandathil & Bartoszyk, 2006, Neuropharm. 51:873-884; Westrich & Kuzhikandathil, 2007, Biochim. Biophys. Acta-MCR 1773:1747-1758; Kuzhikandathil et al., 2004, Mol. Cell. Neurosci. 26:144-155; Westrich et al., 2010, Biochem. Pharmacol. 79:897-907).
Agonist-activated currents were measured by the whole-cell patch clamp technique in voltage clamp and current clamp mode as described previously (Kuzhikandathil & Oxford, 2000, J. Gen. Physiol. 115:697-706; Kuzhikandathil et al., 1998, Mol. Cell. Neurosci. 12:390-402; Kuzhikandathil & Bartoszyk, 2006, Neuropharm. 51:873-884; Westrich & Kuzhikandathil, 2007, Biochim. Biophys. Acta-MCR 1773:1747-1758; Kuzhikandathil et al., 2004, Mol. Cell. Neurosci. 26:144-155; Westrich et al., 2010, Biochem. Pharmacol. 79:897-907). Drug solutions were delivered to cells via a multi-barreled micropipette array. The current responses were normalized to the cell capacitance, to account for variation in cell size.
To compare the functional effects of the new class of D3 receptor agonists, PBZI (Table 2) and ES609 (Table 3) were tested on AtT-20 cells stably expressing human D3, D2S, D2L or D4.2. […]. The EC50 values of PBZI and ES609 for inhibiting adenylyl cyclase and activating GIRK channels were in the range of 0.2 nM to 30 nM for D3 receptors. […]. […]
Target sequence in this assay (P35462 other isoform, or with tags, fused parts or gaps): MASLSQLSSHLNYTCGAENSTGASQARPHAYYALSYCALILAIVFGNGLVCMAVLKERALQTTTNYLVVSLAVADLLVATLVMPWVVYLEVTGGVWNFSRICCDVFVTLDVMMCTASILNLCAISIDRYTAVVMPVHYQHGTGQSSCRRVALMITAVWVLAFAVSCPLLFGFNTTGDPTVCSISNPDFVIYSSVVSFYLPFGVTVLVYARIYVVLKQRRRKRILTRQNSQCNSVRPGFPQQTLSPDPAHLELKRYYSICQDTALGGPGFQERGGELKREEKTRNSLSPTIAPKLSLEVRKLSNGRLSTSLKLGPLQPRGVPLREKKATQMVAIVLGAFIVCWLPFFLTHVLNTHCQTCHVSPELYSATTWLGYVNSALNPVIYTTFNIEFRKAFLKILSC

D3 dopamine receptor [2] = target: T1, D3 dopamine receptor; assay: D3 receptor tolerance and SRT: GIRK response to repeated agonist application in AtT-20 cells; assay type: cell-based; conditions: AtT-20 cells expressing human D3, 100-300 nM agonist, repeated ~60 s applications
Method: To determine whether a compound abolishes the D3 receptor tolerance and SRT, the D3 receptor-activated GIRK response to two consecutive treatments of the lead compound is measured. […] Drug solutions were delivered to cells via a multi-barreled micropipette array. The current responses were normalized to the cell capacitance, to account for variation in cell size.
To identify agonists that might modulate D3 receptor tolerance and SRT properties, ten distinct agonists were screened for their ability to induce tolerance and SRT, using the D3 receptor-GIRK channel signaling pathway as an assay.
Target sequence in this assay (P35462 other isoform, or with tags, fused parts or gaps): as above

[3] = system: intrastriatal 6-OHDA lesioned rats; assay: Levodopa-induced dyskinesia (AIMs score) in intrastriatal 6-OHDA lesioned rats; assay type: in vivo, rat; conditions: PD128907 0.1 mg/kg sc; PBZI 17 mg/kg sc; hydrochloride
Method: In particular, rats in which unilateral intrastriatal lesion is induced by injection of 6-OHDA (7 μg) at three different sites in the ventrolateral striatum are used. The coordinates for the three injection sites are, in mm: injection site 1: AP: +1.0; ML: −3.0; DV: −5.0; injection site 2: AP: −0.1; ML: −3.7; DV: −5.0; injection site 3: AP: −1.2; ML: −4.5; DV: −5.0. Anterior-posterior (AP) and mediolateral (ML) coordinates are from bregma. The dorso-ventral (DV) coordinates are from dura. The toothbar location is 0.
Seven and half weeks after the lesion, chronic levodopa treatment (6 mg/kg, single dose per day given with 15 mg/kg benserazide) is initiated. Stepping test and AIMs scores are determined on day 1, 8, 10, 17 and 24 after the initiation of chronic levodopa treatment. […] AIMs are scored using a rating scale based on frequency and severity of the dyskinetic symptoms. It should be noted that the rank order of the various AIMs components in terms of frequency and severity in the rat model is: limb>orolingual=axial>>locomotor. This lesion model has been used to test the effect of PBZI on LID (Example 3).
FIG. 13A illustrates the effect of control, PD128907 (a tolerance inducing D2/D3 agonist) and PBZI (a non tolerance inducing D3/D3 agonist) on the total AIMs score (includes locomotor, axial, limb and orolingual) over time of a day 17 (chronic L-DOPA phase) lesioned animal.

D4.2 = conditions: Scheideler et al., 1997; cited from earlier work
Balb/c mice = assay: Locomotor activity (open field, TruScan) in Balb/c mice
Method: Therefore, three different doses of the lead compound are administered and their effects on locomotor activity are determined. The dosage is determined based on the functional EC50 values and binding affinity of the lead compound from the cell-based assays described above. The compound is administered to Balb/c mice and locomotor activity is monitored using the TruScan Automated Behavioral Monitoring system (Coulborn Instruments).
A total of 12 young adult, male Balb/c mice were obtained form Charles River, Inc. (Wilmington, Mass.), and housed in groups of four in standard cages. The animals were maintained on a 12 hour light/12 hour dark cycle and permitted ad lib access to food and water. Experiments were conducted during the animal's light phase. […] For PD128907, separate groups of Balb/c mice received subcutaneous injections of saline (n=4) or 0.05 or 0.4 mg/kg PD128907 (n=4, for each). Locomotion (‘distance traveled’) scores of drug-injected animals were collapsed across 10-min intervals and for comparison purposes were normalized to saline injected animals (FIG. 12A). The experiment was conducted on three separate occasions.

D3 dopamine receptor [4] = target: T1, D3 dopamine receptor; conditions: cited from earlier work
Target sequence in this assay (P35462 whole entry): as the sequence (P35462 other isoform, or with tags, fused parts or gaps) above, with S9G counted along it

D2S = D2S (Homo sapiens (Human), UniProt P14416); conditions: Scheideler et al., 1997; cited from earlier work
Chain of D2S (P14416 other isoform, or with tags, fused parts or gaps): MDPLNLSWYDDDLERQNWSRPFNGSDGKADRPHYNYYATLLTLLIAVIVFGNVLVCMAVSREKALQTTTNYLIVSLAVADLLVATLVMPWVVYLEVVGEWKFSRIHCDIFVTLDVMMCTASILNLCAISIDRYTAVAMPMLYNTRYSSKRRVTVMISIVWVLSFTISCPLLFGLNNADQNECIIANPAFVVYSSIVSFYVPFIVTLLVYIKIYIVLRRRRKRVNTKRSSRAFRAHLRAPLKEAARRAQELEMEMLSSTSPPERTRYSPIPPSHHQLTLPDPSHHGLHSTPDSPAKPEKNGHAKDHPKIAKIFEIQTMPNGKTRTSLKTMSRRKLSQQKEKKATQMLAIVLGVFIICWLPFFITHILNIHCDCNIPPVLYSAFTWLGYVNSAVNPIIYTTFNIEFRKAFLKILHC

[5] = system: intrastriatal 6-OHDA lesioned rats; assay: Forelimb stepping test in intrastriatal 6-OHDA lesioned rats; conditions: levodopa 2, 4 and 6 mg/kg with benserazide
D4.2 dopamine receptor [6] = target: T2, D4.2 dopamine receptor (Homo sapiens (Human), UniProt P21917, DEL265-296); conditions: Kuzhikandathil & Bartoszyk, 2006; cited from earlier work
T2 sequence (P21917 other isoform, or with tags, fused parts or gaps del 265-296): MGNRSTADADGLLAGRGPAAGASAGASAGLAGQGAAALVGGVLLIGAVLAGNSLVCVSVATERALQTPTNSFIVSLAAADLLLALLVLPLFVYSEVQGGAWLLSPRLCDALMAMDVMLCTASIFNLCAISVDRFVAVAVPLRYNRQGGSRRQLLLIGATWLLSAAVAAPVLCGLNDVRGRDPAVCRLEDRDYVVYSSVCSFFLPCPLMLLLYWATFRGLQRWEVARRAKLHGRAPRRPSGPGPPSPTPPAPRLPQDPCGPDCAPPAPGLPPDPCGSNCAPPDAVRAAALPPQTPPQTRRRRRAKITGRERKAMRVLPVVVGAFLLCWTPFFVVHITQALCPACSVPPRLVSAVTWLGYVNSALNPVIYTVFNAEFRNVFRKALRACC

D2S dopamine receptor = D2S dopamine receptor (Homo sapiens (Human), UniProt P14416); assay: Tolerance and SRT at D2S dopamine receptors; assay type: cell-based
Chain of D2S dopamine receptor (P14416 other isoform, or with tags, fused parts or gaps): as the sequence (P14416 other isoform, or with tags, fused parts or gaps) above

D4.2 dopamine receptor [7] = target: T2, D4.2 dopamine receptor; conditions: Kuzhikandathil & Bartoszyk, 2006; cited from earlier work; remark: listed apart in the source
D2L dopamine receptor [8] = target: T3, D2L dopamine receptor (Homo sapiens (Human), UniProt P14416); conditions: Kuzhikandathil & Bartoszyk, 2006; cited from earlier work
T3 sequence (P14416 whole entry): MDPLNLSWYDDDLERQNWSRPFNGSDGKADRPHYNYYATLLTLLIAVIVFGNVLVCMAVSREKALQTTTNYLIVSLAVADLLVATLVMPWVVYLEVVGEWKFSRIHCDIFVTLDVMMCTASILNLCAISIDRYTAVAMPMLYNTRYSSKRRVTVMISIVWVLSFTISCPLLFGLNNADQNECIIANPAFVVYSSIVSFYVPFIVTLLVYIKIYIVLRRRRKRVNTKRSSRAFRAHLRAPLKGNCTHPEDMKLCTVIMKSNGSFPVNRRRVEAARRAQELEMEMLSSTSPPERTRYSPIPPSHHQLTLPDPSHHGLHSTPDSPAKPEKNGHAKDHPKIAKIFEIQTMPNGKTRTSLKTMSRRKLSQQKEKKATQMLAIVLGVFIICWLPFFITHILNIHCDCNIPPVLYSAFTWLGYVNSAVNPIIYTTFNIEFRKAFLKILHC

D2L dopamine receptor [9] = target: T3, D2L dopamine receptor; conditions: Kuzhikandathil & Bartoszyk, 2006; cited from earlier work; remark: listed apart in the source

## C#CC1=CCC(N(CCC)CCC)CC1 (stereo not drawn) [FAUC73, (4-ethynylcyclohex-3-enyl) dipropylamine]
D3 dopamine receptor [1]
  specificity of agonist effect (eticlopride pretreatment / parental cells): specific for D3 receptors
D3 dopamine receptor [2]
  D3 receptor tolerance and SRT properties (agonist-induced GIRK response): abolished the tolerance property; also recorded: abolished both tolerance and SRT properties; also recorded: do not show D3 receptor tolerance and SRT
D3 dopamine receptor [2]; listed as FAUC 73
  D3 receptor tolerance and SRT properties (agonist-induced GIRK response): completely abolished the receptors' tolerance and SRT properties

## CCCN1CCO[C@@H]2c3cc(O)ccc3OC[C@H]21.Cl [PD128907, (4aR,10bR)-3,4-a,4,10b-tetrahydro-4-propyl-2H,5H-[1]benzopyrano-[4,3-b]-1,4-oxazin-9-ol hydrochloride]
D3 dopamine receptor [2]; hydrochloride
  D3 receptor tolerance and SRT properties (agonist-induced GIRK response): elicited tolerance and SRT; also recorded: induced enhanced tolerance; also recorded: induces severe tolerance and SRT
D3 dopamine receptor [2]; listed as PD 128907, hydrochloride
  D3 receptor tolerance and SRT properties (agonist-induced GIRK response): tolerance is elicited
[3]
  dyskinesia induced by the compound itself, before levodopa administration: in of itself induced dyskinesia; also recorded: increased AIMs score even before the levodopa was administered
D4.2
  Ki: 114 nM
Balb/c mice; PBZI 10 mg/kg sc, PD128907 0.4 mg/kg sc
  duration of hypoactivity post-injection: 40 min
Balb/c mice; PD128907 0.05 mg/kg sc
  duration of hypoactivity post-injection: 20 min
Balb/c mice; post-injection, PBZI 10 mg/kg sc, PD128907 0.4 mg/kg sc
  time by which locomotor activity returns to control saline levels: ≤ 120 min
Balb/c mice; sc
  dose at which biphasic locomotor effect was observed: ≥ 0.05 mg/kg
Balb/c mice; sc, PBZI 10 mg/kg, PD128907 0.05-0.4 mg/kg, normalized to saline, hydrochloride
  locomotor response: induces both hypoactivity and hyperactivity; also recorded: biphasic locomotor response; also recorded: biphasic effect; also recorded: an initial hypoactivity (horizontal arrows) that is followed by hyperactivity
D3 dopamine receptor [4]; D3, Scheideler et al., 1997, read-out: Ki
  Ki: 0.4 nM
D3 dopamine receptor [4]; source not stated, read-out: D3 dopamine receptor binding affinity Ki
  Ki: 2.3 nM
D2S
  Ki: 202 nM

## N[C@@H](Cc1ccc(O)c(O)c1)C(=O)O [levodopa, L-3,4-dihydroxyphenylalanine]
[5]
  forelimb bradykinesia (forelimb stepping test): dose dependent improvement in forelimb bradykinesia

## Fc1ccc(-c2cncc(CNC[C@H]3CCc4ccccc4O3)c2)cc1 [sarizotan, 1-[(2R)-3,4-dihydro-2H-chromen-2-yl]-N-([5-(4-fluorophenyl)pyridin-3-yl]methyl)methanamine]
D4.2 dopamine receptor [6]
  GIRK channel signaling pathway: agonist type: partial agonist
D2S dopamine receptor
  tolerance and SRT properties at D2S: induces tolerance and slow response termination (SRT) properties
D4.2 dopamine receptor [7]
  adenylyl cyclase pathway: agonist type: full agonist
D2L dopamine receptor [8]
  adenylyl cyclase pathway: agonist type: full agonist
D2L dopamine receptor [9]
  GIRK channel signaling pathway: agonist type: partial agonist
